“And” between values parts separate entries of the source, which are not always exact repeats. Identical values can stand only once.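 Assay format: 96-well plates, 48-hour exposure. GI50 marks 50% less growth. TGI denotes the concentration required for complete inhibition of growth.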 Where only a bound is given, the exact number is not on record here.

Some test systems named below: HCT-15 colon; HOP-62 NSCLC; K-562 leukemia; NCI-H226 lung; SF-539 CNS; SR leukemia; TK-10 renal; UACC-62 melanoma; MALME-3M melanoma; NCI-H522 lung.
What all share (assay): growth of human tumour cells (NCI), 48 h

Turning to `O=C(CP(c1ccccc1)c1ccccc1)c1cccc(C(=O)CP(c2ccccc2)c2ccccc2)c1`, the TGI in the assay with HCT-15 colon was greater than 100 µM; in the assay on HOP-62 NSCLC, greater than 100 µM; with K-562 leukemia it was greater than 100 µM; in the assay on NCI-H226 lung, greater than 100 µM; in the assay with SF-539 CNS, greater than 100 µM; in the assay with SR leukemia it was 61.5 µM. The TGI with TK-10 renal and in the assay with UACC-62 melanoma was greater than 100 µM throughout.

Turning to `COc1ccc2oc(=N)c(C(=O)Nc3cccc4ccccc34)cc2c1`, the TGI in the assay with HCT-15 colon was greater than 100 µM; in the assay with HOP-62 NSCLC, 26.9 µM; in the assay on K-562 leukemia, greater than 100 µM; in the assay on MALME-3M melanoma, 49.8 µM; in the assay on NCI-H226 lung, greater than 100 µM; in the assay on SF-539 CNS, greater than 100 µM. The results for the TGI in the assay on SR leukemia, with TK-10 renal and in the assay with UACC-62 melanoma were 28.5 µM, 51.1 µM and 17.1 µM, respectively.

Turning to `COC(=O)N1CC2(CO)C3CC=C(C(=O)Nc4ccccc4Br)C2C1C3Br` (stereo not drawn), the TGI in the assay on HCT-15 colon, in the assay on HOP-62 NSCLC, in the assay with K-562 leukemia, in the assay on MALME-3M melanoma, with NCI-H226 lung and in the assay on SF-539 CNS was greater than 50 µM each time. Further, the TGI in the assay on SR leukemia, in the assay on TK-10 renal and with UACC-62 melanoma was greater than 50 µM throughout.

Take `CC1=NN(c2nc(N)nc(-c3ccccc3S(N)(=O)=O)n2)C(C)(C)C1`: the TGI in the assay with HCT-15 colon, in the assay on HOP-62 NSCLC, in the assay on K-562 leukemia, with NCI-H226 lung, in the assay with NCI-H522 lung and in the assay on SF-539 CNS was greater than 100 µM in each case. The TGI in the assay on SR leukemia is 68.5 µM; in the assay with TK-10 renal, greater than 100 µM.

Consider `COc1cccc2c1OC1c3ccccc3OCC1C2` (stereo not drawn), for which the TGI with HCT-15 colon, with HOP-62 NSCLC, with K-562 leukemia, in the assay on MALME-3M melanoma, in the assay on NCI-H226 lung and in the assay on SF-539 CNS was greater than 100 µM each time. The TGI with SR leukemia, with TK-10 renal and in the assay on UACC-62 melanoma was greater than 100 µM in each case.

For `O=C(O)c1ccccc1.[Ag]`, the TGI is 49.5 µM with HCT-15 colon; 46.3 µM in the assay on HOP-62 NSCLC; greater than 26.4 µM in the assay with K-562 leukemia; 3.25 µM in the assay on MALME-3M melanoma; greater than 100 µM in the assay on NCI-H226 lung; 45.4 µM in the assay on SF-539 CNS. For the same molecule, the TGI in the assay on SR leukemia is greater than 100 µM; in the assay on TK-10 renal, 19.6 µM; in the assay with UACC-62 melanoma, 32.3 µM.

As to `CCC(C)[C@@H](NCc1ccccc1)[C@H](OCc1ccccc1)[C@@H]1COC(C)(C)O1` (stereo partly drawn), the TGI in the assay on HCT-15 colon was 31.6 µM; in the assay on HOP-62 NSCLC, greater than 100 µM; in the assay on K-562 leukemia it was 59.8 µM; in the assay with MALME-3M melanoma, 45.8 µM; in the assay on NCI-H226 lung, 30.6 µM; in the assay with SR leukemia, 60.5 µM. In addition, the results for the TGI in the assay on TK-10 renal and in the assay with UACC-62 melanoma were 32.7 µM and 42.3 µM, respectively.

In the case of `CCOC(=O)c1cn(-c2ccccc2)c(=S)n2c1nc1ccccc12`, the TGI is greater than 100 µM in the assay with HCT-15 colon; greater than 100 µM in the assay with HOP-62 NSCLC; greater than 100 µM in the assay with K-562 leukemia; greater than 88.1 µM in the assay with NCI-H226 lung; greater than 100 µM in the assay with SF-539 CNS; 84.6 µM in the assay on SR leukemia. Also, the TGI in the assay on TK-10 renal and in the assay with UACC-62 melanoma was greater than 100 µM each time.

Turning to `CCC1(O)CC(OC2CC(N(C)C)C(OC3CC4OC5CC(=O)C(C)OC5OC4C(C)O3)C(C)O2)c2c(cc3c(c2O)C(=O)c2c(O)ccc(O)c2C3=O)C1C(=O)OC` (stereo not drawn), the GI50 was 0.000761 µM and 0.00754 µM with K-562 leukemia; 1.11 nM and 7.88 nM with NCI-H522 lung; 16.8 nM and 3.14 nM in the assay on TK-10 renal; 4.79 nM and 8.57 nM in the assay on UACC-62 melanoma. The TGI was 0.0319 µM and 0.0122 µM and 0.0182 µM in the assay with NCI-H522 lung; 0.0164 µM and 0.0136 µM in the assay on UACC-62 melanoma.

On to `c1csc(-c2ccc(-c3ccc(-c4ccc(-c5cccs5)s4)s3)s2)c1`, for which the TGI with HCT-15 colon, in the assay on HOP-62 NSCLC, in the assay with K-562 leukemia, with NCI-H226 lung, in the assay on SF-539 CNS and in the assay on SR leukemia was greater than 100 µM in each case. Besides, the TGI in the assay with TK-10 renal and in the assay on UACC-62 melanoma was greater than 100 µM in each case.

With `CCOC(=O)CCCn1nnc(C(=O)OCC)c1C(=O)OCC`, the TGI in the assay with HCT-15 colon, with HOP-62 NSCLC, in the assay with MALME-3M melanoma, with NCI-H226 lung, in the assay with SF-539 CNS and in the assay on SR leukemia was greater than 100 µM throughout. Moreover, the TGI with TK-10 renal and in the assay with UACC-62 melanoma was greater than 100 µM throughout.

Turning to `O=C1c2ccccc2C(=O)N1n1c(Cc2ccccc2)n[nH]c1=O`, the TGI in the assay with HCT-15 colon, with HOP-62 NSCLC, with K-562 leukemia, in the assay on MALME-3M melanoma, in the assay on NCI-H226 lung and in the assay on SF-539 CNS was greater than 100 µM each time. In addition, the TGI in the assay with SR leukemia, with TK-10 renal and with UACC-62 melanoma was greater than 100 µM each time.

As for `C1CC2=C(C1)[Se]C(=C1Sc3nsnc3S1)[Se]2`, the TGI in the assay on HCT-15 colon, in the assay with HOP-62 NSCLC, in the assay with MALME-3M melanoma, in the assay on NCI-H226 lung, with NCI-H522 lung and in the assay on SF-539 CNS was greater than 100 µM throughout. In addition, the TGI in the assay on TK-10 renal and in the assay on UACC-62 melanoma was greater than 100 µM throughout.

On to `Nc1nc(N)c2ncn(CC3CCC(CO)C3)c2n1` (stereo not drawn), for which the TGI in the assay with HCT-15 colon, with HOP-62 NSCLC, in the assay on K-562 leukemia, with NCI-H226 lung, in the assay with SF-539 CNS and in the assay with TK-10 renal was greater than 100 µM each time. This molecule came in with a TGI in the assay on UACC-62 melanoma greater than 100 µM.

Consider `c1ccc(CNC2CC(NCc3ccccn3)CC(NCc3ccccn3)C2)nc1` (stereo not drawn), for which the TGI in the assay on HCT-15 colon is > 75.2 µM and 25 µM and > 100 µM; in the assay on HOP-62 NSCLC it was 20.8 µM and 20.4 µM and 23 µM; in the assay with K-562 leukemia, 34.6 µM and 25 µM and 28.3 µM; with MALME-3M melanoma, 10.4 µM and 8.6 µM and 15.8 µM; in the assay with NCI-H226 lung, 6.07 µM and 7.07 µM and 5.39 µM; with NCI-H522 lung it was 6.36 µM and 12.2 µM and 4.68 µM. Besides, the TGI in the assay on SF-539 CNS is 10.1 µM and 10.7 µM and 15.7 µM; with TK-10 renal, 17.8 µM and 10.8 µM; with UACC-62 melanoma, 5.27 µM and 12.1 µM and 3.53 µM. Besides, the GI50 was 3.45 µM and 12.4 µM and 3.71 µM with K-562 leukemia; 2770 nM in the assay with NCI-H226 lung; 2160 nM in the assay on NCI-H522 lung; 1.98 µM and 4.74 µM and 3.22 µM in the assay on SF-539 CNS; 2300 nM and 4720 nM and 1830 nM with UACC-62 melanoma.

These data come from PubChem BioAssay (NCI).
